From patent publication US20250161180A1, “NOVEL USE OF 4-AMIDINO BENZYLAMINES” (DSM IP Assets B.V., priority 2022, published 2025)

Test system: collagen type 1
Assay: in vitro dermal fibroblast collagen assay (collagen 1 immunolabeling, flow cytometry)
Assay type: cell-based, human
Conditions: for Collagen 1 expression relative to untreated (%): normal human dermal fibroblasts, 72 hours, mean (n = 4), untreated = 100%
Experimental: Amidinobenzyl Benzylsulfonyl D-Seryl Homophenylalaninamide Acetate (ABSHA) was evaluated for its effect on collagen type 1. This was done using an in vitro dermal fibroblast collagen assay.
Normal human dermal fibroblasts were seeded in cell culture medium (Dulbecco's Modified Eagle Medium supplemented with 10% serum and 1% antibiotics) and allowed to adhere in a humidified cell incubator maintaining 37° C. and 5% CO2. Afterwards, the cells were starved with culture medium without serum for 16-24 hours to synchronize the cells their cell cycle. The starvation medium was removed and cell culture medium+SYN®-UP at various concentrations was added to the cells. The cells were treated for 72 hours. The cells were then fixated and immunolabeled with antibodies specific for collagen 1. These labeled cells were analyzed using flow cytometry and compared to the untreated ones (medium without SYN®-UP).
Table 1. […] Data are normalized to the untreated control (100%) and expressed as the mean±SD (n=4).

N=C(N)c1ccc(CNC(=O)C(CCc2ccccc2)NC(=O)C(CO)NS(=O)(=O)Cc2ccccc2)cc1 [ABSHA, Amidinobenzyl Benzylsulfonyl D-Seryl Homophenylalaninamide Acetate]
effect on collagen type 1 expression (in words) (in vitro dermal fibroblast collagen assay): increases collagen expression | Collagen 1 expression relative to untreated (%) (1 μM): 144% | Collagen 1 expression relative to untreated (%) (5 μM): 160% | Collagen 1 expression relative to untreated (%) (25 μM): 185% | Collagen 1 expression relative to untreated (%) (concentration printed only as "μM" (figure missing)): 188%
